Source: patent US20220104492A1, “PYRIDAZINIUM COMPOUNDS FOR USE IN A METHOD OF CONTROLLING UNWANTED PLANT GROWTH” (SYNGENTA CROP PROTECTION AG, priority 2019, published 2022)

Key:
Test in all cases: Post-emergence efficacy (glasshouse, spray application)
Format in all cases: in vivo
[1] = tested on: Echinochloa crus-galli (ECHCG); details: 312 h, Application rate 500 g/Ha, evaluated after 13 days, 100=total damage to plant, 0=no damage to plant, read-out: Control of weed species after post-emergence application, ECHCG
Protocol: (§1) Seeds of a variety of test species were sown in standard soil in pots. After cultivation for 14 days (post-emergence) under controlled conditions in a glasshouse (at 24/16° C., day/night; 14 hours light; 65 humidity), the plants were sprayed with an aqueous spray solution derived from the dissolution of the technical active ingredient formula (I) in a small amount of acetone and a special solvent and emulsifier mixture referred to as IF50 (11.12% Emulsogen EL360 TM+44.44% N-methylpyrrolidone+44.44% Dowanol DPM glycol ether), to create a 50 g/l solution which was then diluted to required concentration using a solution of 0.25% or 1% Empicol ESC70 (Sodium lauryl ether sulphate)+1% ammonium sulphate in water as diluent.
(§2) The test plants were then grown in a glasshouse under controlled conditions (at 24/16° C., day/night; 14 hours light; 65% humidity) and watered twice daily. After 13 days the test was evaluated (100=total damage to plant; 0=no damage to plant).
(§3) Ipomoea hederacea (IPOHE), Euphorbia heterophylla (EPHHL), Chenopodium album (CHEAL), Amaranthus palmeri (AMAPA), Lolium perenne (LOLPE), Digitaria sanguinalis (DIGSA), Eleusine indica (ELEIN), Echinochloa crus-galli (ECHCG), Setaria faberi (SETFA)

[2] = tested on: Chenopodium album (CHEAL); details: 312 h, Application rate 500 g/Ha, evaluated after 13 days, 100=total damage to plant, 0=no damage to plant, read-out: Control of weed species after post-emergence application, CHEAL
Protocol: as §1, §2, §3

Lolium perenne (LOLPE) = details: 312 h, Application rate 500 g/Ha, evaluated after 13 days, 100=total damage to plant, 0=no damage to plant, read-out: Control of weed species after post-emergence application, LOLPE
Protocol: as §1, §2, §3

[3] = tested on: Amaranthus palmeri (AMAPA); details: 312 h, Application rate 500 g/Ha, evaluated after 13 days, 100=total damage to plant, 0=no damage to plant, read-out: Control of weed species after post-emergence application, AMAPA
Protocol: as §1, §2, §3

Eleusine indica (ELEIN) = details: 312 h, Application rate 500 g/Ha, evaluated after 13 days, 100=total damage to plant, 0=no damage to plant, read-out: Control of weed species after post-emergence application, ELEIN
Protocol: as §1, §2, §3

[4] = tested on: Euphorbia heterophylla (EPHHL); details: 312 h, Application rate 500 g/Ha, evaluated after 13 days, 100=total damage to plant, 0=no damage to plant, read-out: Control of weed species after post-emergence application, EPHHL
Protocol: as §1, §2, §3

[5] = tested on: Ipomoea hederacea (IPOHE); details: 312 h, Application rate 500 g/Ha, evaluated after 13 days, 100=total damage to plant, 0=no damage to plant, read-out: Control of weed species after post-emergence application, IPOHE
Protocol: as §1, §2, §3

[6] = tested on: Digitaria sanguinalis (DIGSA); details: 312 h, Application rate 500 g/Ha, evaluated after 13 days, 100=total damage to plant, 0=no damage to plant, read-out: Control of weed species after post-emergence application, DIGSA
Protocol: as §1, §2, §3

Setaria faberi (SETFA) = details: 312 h, Application rate 500 g/Ha, evaluated after 13 days, 100=total damage to plant, 0=no damage to plant, read-out: Control of weed species after post-emergence application, SETFA
Protocol: as §1, §2, §3

SMILES	pest or weed control at 500 g/ha [1] [%]	pest or weed control at 500 g/ha [2] [%]	pest or weed control at 500 g/ha (Lolium perenne (LOLPE)) [%]	pest or weed control at 500 g/ha [3] [%]	pest or weed control at 500 g/ha (Eleusine indica (ELEIN)) [%]	pest or weed control at 500 g/ha [4] [%]	pest or weed control at 500 g/ha [5] [%]	pest or weed control at 500 g/ha [6] [%]	pest or weed control at 500 g/ha (Setaria faberi (SETFA)) [%]
O=C(O)CNC(=O)CC[n+]1ccc(-c2cccnn2)cn1 [Compound A27]	90	100	70	100	60	90	40	100	100
CN(CC[n+]1ccc(-c2ncccn2)cn1)S(=O)(=O)CC(=O)O [Compound A30, 2-[methyl-[2-(4-pyrimidin-2-ylpyridazin-1-ium-1-yl)ethyl]-sulfamoyl]acetic acid chloride]	100	80	50	100	40	90	20	70	60
CC(=O)N(CC[n+]1ccc(-c2ncccn2)cn1)CC(=O)O [Compound A31]	60	90	20	100	60	90	50	80	60
CC(C)(NC(=O)CC[n+]1ccc(-c2ncccn2)cn1)C(=O)O [Compound A32]	70	100	60	100	80	80	30	80	80
O=C(O)CSC[n+]1ccc(-c2ncccn2)cn1 [Compound A33, 2-[(4-pyrimidin-2-ylpyridazin-1-ium-1-yl)methylsulfanyl]acetic acid 2,2,2-trifluoroacetate]	100	100	70	100	100	100	40	100	90
CN(CC(=O)O)C(=O)C[n+]1ccc(-c2ccccn2)cn1 [Compound A34]	30	0	10	90	20	50	40	20	40
O=C(O)CNC(=O)C[n+]1ccc(-c2cnccn2)cn1 [Compound A35]	50	40	0	70	60	40	20	100	60
CC(C)(CC(=O)O)NC(=O)CC[n+]1ccc(-c2ncccn2)cn1 [Compound A36]	40	100	90	100	100	90	20	100	100
CC(C)(NC(=O)C[n+]1ccc(-c2ncccn2)cn1)C(=O)O [Compound A37]	40	50	70	100	70	80	40	70	80
O=C(CC[n+]1ccc(-c2ncccn2)cn1)NC1(C(=O)O)CC1 [Compound A38]	50	100	90	100	100	80	10	90	100
O=C(O)COC[n+]1ccc(-c2ncccn2)cn1 [Compound A39]	80	80	70	100	60	90	80	100	70
